Reference: PubChem BioAssay AID504861 (Broad Institute, 2011)
Activity calls are given as the source filed them.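 The calls were made as follows: active = compounds lowering cell viability signal with fitted half-maximal concentration at most ten times their highest tested concentration; inconclusive = flat fit with 30 to 70% signal loss, or poor fit; inactive = the rest.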

Test system: HEK293T viability, CellTiter-Glo ATP luminescence, 48 h
Experiment: HEK293T cell viability reduction, dose response, cytotoxicity control for LMP1 NF-kB inhibitor project, CellTiter-Glo luminescence, cherry-picks (AID 504861)

Row | SMILES | AC50
1 | C#CCN(C[C@@H]1[C@@H](OC(=O)NCc2ccccc2F)[C@@H](OC(=O)NCc2ccccc2F)Cn2c(=O)ccc(=O)n21)S(=O)(=O)c1ccc(C)cc1 | 7.27 µM
2 | CC(=O)NC(c1ccc(Cl)cc1Cl)c1ccc2cccnc2c1O (stereo not given) | 1.63 µM
3 | CCOC(=O)c1cn2nc(N3CCCCC3)ccc2n1 | > 26 µM (inactive)
4 | COc1ccccc1-c1nc(-c2ccccn2)no1 | 5.63 µM
5 | Nc1ccc(C(=O)N/N=C\c2cc(N=Nc3cccc4ccccc34)ccc2O)cc1 | 26.5 µM
6 | CCN1CCN(Cc2ccc(NC(=O)c3ccc(C)c(/C=C/c4cnc(Nc5cc(N6CCNCC6)nc(C)n5)cn4)c3)cc2C(F)(F)F)CC1 | 14.3 µM
7 | COc1ccc(/C=C/c2nc3ccccc3n2C)cc1 | 2.27 µM
8 | CC1(C)N=C(N)N=C(N)N1c1ccc(CCCCc2ccccc2)cc1 | 0.406 µM
9 | COc1ccc(N/N=C/c2c(C(=O)O)ccc3ccccc23)cc1 | 4.11 µM
10 | CCCCC(=O)NC(c1ccc(OC)cc1)c1ccc2cccnc2c1O (stereo not given) | 16.2 µM
11 | O=C(N/N=C/c1cc2c3c(c1O)CCCN3CCC2)c1ccccc1O | 4.17 µM
12 | CCN(CC)c1ccc(/C=N/Nc2nc3ccccc3[nH]2)c(O)c1 | 4.51 µM
13 | Cc1nc(N)nc(N)c1/C=C/C(C)(C)c1ccc(Cl)cc1 | < 0.011 µM
14 | Cc1[nH]n(-c2ccccc2)c(=O)c1/C=N/Nc1nncc(-c2ccccc2)n1 | 2.64 µM
15 | NC(=S)NN=Cc1nccc2c(C(F)(F)F)cccc12 | 5.67 µM
16 | COc1ccccc1NC(=O)c1c(Nc2ccccc2C)sc(C(=O)Nc2cccc(Cl)c2)c1N | 4.52 µM
17 | COc1cccc(/C=N/Nc2ncnc(Cl)c2N)c1O | 3.23 µM
18 | CS(=O)(=O)c1ncc(Cl)c(C(=O)Nc2ccc(OC(F)F)cc2)n1 | 3.2 µM
19 | C(=Cc1cnc2ccccc2n1)c1ccc2c(c1)OCO2 | 1.74 µM
20 | C(=N\Nc1nc2ccccc2[nH]1)/c1cccc2cccnc12 | 3.24 µM
21 | CC(=NNC(=S)Nc1ccccc1Cl)c1ccccn1 | 0.922 µM
22 | O=C(N/N=C/c1sc2ccccc2c1O)c1cccc2ccccc12 | 4.96 µM
23 | CN(Cc1cnc2nc(N)nc(N)c2n1)c1ccc(C(=O)N[C@@H](CCC(=O)O)C(=O)O)cc1 | 0.016 µM

Row | SMILES | AC50
24 | CC(C)OC(=O)c1ccc(NCc2cc(O)ccc2O)cc1Cl | 6.74 µM
25 | O=C(N/N=C/c1cccs1)c1n[nH]c2c1CCCC2 | 27 µM
26 | CC(=NNC(=S)Nc1cccc(Cl)c1)c1ccccn1 | 0.687 µM
27 | C[n+]1c2n(c3ccccc31)N=C(c1cc(C(C)(C)C)c(O)c(C(C)(C)C)c1)CS2 | 9.45 µM
28 | O=C1C(=C(c2ccccc2)N2CCOCC2)Cc2ccccc21 | 1.38 µM
29 | Oc1ccc(C=NNC(=S)Nc2ccccc2)nc1 | 4.96 µM
30 | COc1ccc(Cc2nnc(N/N=C/c3ccc(O)cc3)[nH]c2=O)cc1OC | 3.56 µM
31 | CCN(CC)c1ccc(/C=N/Nc2nc(C)cc(=O)[nH]2)c(O)c1 | 1.41 µM
32 | CCOc1ccc(C(=O)Nc2cc(C)ccn2)cc1 | 13.8 µM
33 | COc1ccc2[nH]c(-c3ccc(C)cc3)cc(=O)c2c1 | > 26 µM (inactive)
34 | c1ccc(CCNc2nc(-c3ccccn3)nc3ccccc23)cc1 | 1.13 µM
35 | CCC(C)Nc1nc(-c2ccccn2)nc2ccccc12 (stereo not given) | 4.04 µM
36 | c1ccc(-c2nc(-c3ccccn3)no2)cc1 | 7.87 µM
37 | COc1ccccc1[C@]1(C)ON(c2ccccc2C(F)(F)F)C1=O | 26.4 µM
38 | O=C(CF)N(O)c1ccc(C=Cc2ccccc2)cc1 | > 26 µM (inactive)
39 | O=C(NC1CCCCCCC1)c1cc(COc2ccc3ncccc3c2)on1 | 1.3 µM
40 | CCN1CCN(Cc2ccc(NC(=O)c3ccc(C)c(NC(=O)c4c[nH]c5cc(C(F)(F)F)ccc5c4=O)c3)cc2C(F)(F)F)CC1 | 4.09 µM
41 | CC(=NNC(=S)N1CCN(c2ccccn2)CC1)c1nccs1 | 3.52 µM
42 | COc1ccccc1/C=C/C(=O)c1ccc(Cl)cc1 | 12.4 µM
43 | CCCc1sc(N/N=C/c2ccccn2)nc1-c1ccc(Br)cc1 | 21.4 µM
44 | CC(=O)NC(c1ccc2ccccc2c1)c1ccc2cccnc2c1O (stereo not given) | 1.32 µM
45 | COc1cnc(-c2ccccn2)nc1Sc1ccccc1Cl | 18.8 µM
46 | CCOc1ccc(OCC(=O)Nc2nccs2)cc1 | 11.3 µM

Row | SMILES | AC50
47 | COc1cc([C@@H]2c3cc4c(cc3[C@@H](O[C@@H]3O[C@@H]5CO[C@@H](C)O[C@H]5[C@H](O)[C@H]3O)[C@H]3COC(=O)[C@H]23)OCO4)cc(OC)c1O | 26.5 µM
48 | S=C(NN=Cc1ccccn1)Nc1ccccn1 | 23 µM
49 | Cn1nnnc1N=N/C(=N/Nc1ccccc1)c1ccccc1 | 1.23 µM
50 | Cc1cccc(-n2ncc(Cl)c(Cl)c2=O)c1 | 5.2 µM
51 | CCCCC(=O)NC(c1ccc(OC)c(OC)c1)c1ccc2cccnc2c1O (stereo not given) | 4.63 µM
52 | O=[N+]([O-])c1c(Nc2cccc(O)c2)cc(Cl)c2nonc12 | 4.39 µM
53 | CC(=NNC(=S)Nc1ccc(C)cc1)c1ccccn1 | 0.624 µM
54 | c1ccc(CN2CCN(c3ncnc4c3[nH]c3ccccc34)CC2)cc1 | 11.8 µM
55 | CCCc1nc2ccc(Br)cc2c(=O)n1-c1ccc([N+](=O)[O-])c(C(F)(F)F)c1 | 4.2 µM
56 | c1ccn2cc(-c3ccc4c(c3)OCCO4)nc2c1 | 16.1 µM
57 | Nc1nc2ccccc2n1C(=O)c1ccccc1 | > 26 µM (inactive)
58 | CCN(CC)C(=O)c1ccc(NC(=O)Nc2ccccc2F)cc1 | 2.41 µM
59 | CC(=NNC(=S)N1CCCC1)c1ccccn1 | 4.56 µM
60 | Fc1ccc2[nH]c3c(N4CCSCC4)ncnc3c2c1 | 9.97 µM
61 | CCN1CCN(Cc2ccc(NC(=O)c3ccc(C)c(NC(=O)c4nccnc4N)c3)cc2C(F)(F)F)CC1 | 23.6 µM
62 | CCCCC(=O)NC(c1cccc([N+](=O)[O-])c1)c1ccc2cccnc2c1O (stereo not given) | 3.93 µM
63 | COc1cccc(/C=N/Nc2ncccc2[N+](=O)[O-])c1OC | 18.8 µM
64 | COc1ccccc1NC(=S)NN=C(C)c1ccccn1 | 0.403 µM
65 | CCc1ccc(Nc2n[n+](-c3ccccc3)c(-c3c(Cl)cccc3Cl)s2)cc1 | 11.2 µM
66 | COc1ccc(-c2nc(-c3cccs3)no2)cc1 | > 26 µM (inactive)
67 | C#Cc1cc(N2CCN(C(=O)c3ccoc3)CC2)n2nc(-c3cccc(Cl)c3)cc2n1 | 5.11 µM
68 | CC(=NNc1nc2ccccc2o1)c1cc2ccccc2cn1 | 0.252 µM
69 | NC(=S)N/N=C/c1ncc(C(F)(F)F)cc1Cl | 17.9 µM

Row | SMILES | AC50
70 | COc1ccc(C=C2CS(=O)(=O)CC(=Cc3ccc(OC)cc3)C2=O)cc1 | 11.8 µM
71 | CCOC(=O)c1c(C)[nH]c(C(=O)N/N=C\c2ccccc2O)c1C | 4.09 µM
72 | Cc1ccc(C(=O)Nc2ccc3c(c2)OCCO3)c(Cl)c1 | > 26 µM (inactive)
73 | CC(=O)NC(c1ccc(C(C)C)cc1)c1ccc2cccnc2c1O (stereo not given) | 1.2 µM
74 | CCN(CC)S(=O)(=O)c1cccc(NC(=O)Nc2cccc(C(F)(F)F)c2)c1 | 19.1 µM
75 | COc1cc2c(cc1OC)C(c1ccc(-c3ccccc3Cl)o1)=NCC2 | 21 µM
76 | c1ccc(-c2cccc(-c3ccccn3)n2)nc1 | 1.77 µM
77 | O=C(Nc1nnc(SCc2ccc(F)cc2)s1)c1ccccn1 | 25.9 µM
78 | Cc1ccc(CSc2nc3ccncc3[nH]2)cc1 | 20.9 µM
79 | Oc1cccc2ccc(Nc3ccccn3)nc12 | 8.91 µM
80 | Cc1cc(Sc2nnc(N)s2)c2ccccc2n1 | 3.34 µM
81 | CCC(=O)NC(c1cc(Cl)c2cccnc2c1O)C(C)C (stereo not given) | 9.32 µM
82 | COc1cccc(N=Nc2ccc(O)c3ncccc23)c1 | 2.88 µM
83 | CCOc1ccc(Br)cc1/C(C)=N\NC1=NCCN1 | 3.69 µM
84 | O=C(N/N=C/c1ccc[nH]1)c1ccc(COc2cccc3cccnc23)cc1 | 3.99 µM
85 | O=C(c1ccccc1)C(CCC(CN1CCOCC1)C(=O)c1ccccc1)CN1CCOCC1 (stereo not given) | 2.57 µM
86 | CCN(CC)c1ccc(/C=N/NC(=O)c2c(Cl)cnn2C)c(O)c1 | 2.81 µM
87 | COc1cc(C=C2CCCC(=Cc3ccc(OCC4CO4)c(OC)c3)C2=O)ccc1OCC1CO1 (stereo not given) | 24.3 µM
88 | Oc1ccc2ccccc2c1/C=N/Nc1nnc(-c2ncc[nH]2)c2ccccc12 | 2.32 µM
89 | COc1ccccc1N(C(C)=O)C1=C(Cl)C(=O)c2ccccc2C1=O | 11.7 µM
90 | O=C(CCc1ccccc1)NC(c1cccs1)c1cc(Cl)c2cccnc2c1O (stereo not given) | 9.28 µM
91 | Cc1csc(N=Nc2ccc(N(C)C)cc2)[n+]1[O-] | 5.71 µM
92 | CC(C)CC(=NNC(=O)c1ccncc1)c1cc(Cl)ccc1O | 3.12 µM

Row | SMILES | AC50
93 | CCCCC(=O)NC(c1ccc(Cl)cc1Cl)c1ccc2cccnc2c1O (stereo not given) | 3.16 µM
94 | CCC(=O)NC(c1ccc(Cl)cc1Cl)c1ccc2cccnc2c1O (stereo not given) | 8.21 µM
95 | Cc1cc(=O)[nH]c(NN=Cc2cc(Br)ccc2O)n1 | 3.36 µM
96 | CCC(=O)NC(c1ccc(C)cc1)c1ccc2cccnc2c1O (stereo not given) | 4.33 µM
97 | O=C(Nc1ccc2c(c1)OCCO2)c1ccccn1 | 21.2 µM
98 | CCNC(=S)NNC(=O)c1cc(-c2ccc(OCC)cc2)nc2ccccc12 | 23 µM
99 | C#CCN(C[C@@H]1[C@@H](OC(=O)NCC2CCCCC2)[C@@H](OC(=O)NCC2CCCCC2)Cn2c(=O)ccc(=O)n21)S(=O)(=O)c1ccc(C)cc1 | 4.63 µM
100 | c1ccc(CCCN2CCN(CCOC(c3ccccc3)c3ccccc3)CC2)cc1 | 16.5 µM
101 | Oc1ccc2ccccc2c1N=Nc1ccccn1 | 3.42 µM
102 | Cc1ccc2[nH]c3c(N4CCN(Cc5ccccc5)CC4)ncnc3c2c1 | 12.2 µM
103 | Brc1ccc(-c2nc(-c3ccccn3)no2)o1 | > 26 µM (inactive)
104 | COc1cccc(/C=N/NC(=O)c2[nH]nc3c2CCc2ccccc2-3)c1O | 3.21 µM
105 | CCN1CCN(Cc2ccc(NC(=O)c3ccc(C)c(NC(=O)c4cccc5[nH]ccc45)c3)cc2C(F)(F)F)CC1 | 22.3 µM
106 | O=C1c2cccc3c([N+](=O)[O-])ccc(c23)C(=O)N1c1ccccn1 | 4.11 µM
107 | NC(=S)NN=Cc1nccc2c(C(F)(F)C(F)(F)C(F)(F)F)cccc12 | 1.52 µM
108 | Oc1ccccc1/C=N/Nc1nccnc1Cl | > 26 µM (inactive)
109 | Cc1ccc(C(=O)/C=C/C(=O)c2ccc(C)cc2)cc1 | 7.08 µM
110 | COc1ccc2c(c1)/C(=C/c1cnc[nH]1)C(=O)N2 | 23.1 µM
111 | C=CCn1c(O)c(N=NC(=S)Nc2ccccc2F)c2cc(S(=O)(=O)N3CCOCC3)ccc21 | > 26 µM (inactive)
112 | O=C(/C=C/c1ccco1)Oc1cc(Br)cc(/C=N/NC(=O)c2ccccc2O)c1 | 3.47 µM
113 | CCN1C(=O)[C@@H]2[C@@H](c3ccc(-c4ccc(Cl)c(Cl)c4)cc3)N3CCC[C@@]3(C(=O)OC)[C@@H]2C1=O | > 26 µM (inactive)
114 | c1ccc(C2=NNC(=NC3CC3)SC2)cc1 | 12.1 µM
115 | CCC(NC(=O)Nc1nnc(C(F)(F)F)s1)(C(F)(F)F)C(F)(F)F | 9.8 µM
